Results from US8507488B2, “Fused nitrogen containing heterocycles and compositions thereof as kinase inhibitors” (IRM LLC, priority 2008, dated 2013).

How the values were obtained:
parental BaF3 cells = test: Proliferation of parental (untransformed) Ba/F3 cells maintained with IL3; type: cell-based, murine; settings: Mus musculus, BaF3, parental Ba/F3 cells; read-out: Ba/F3 IC 50
Method: (§1) Test compounds were dissolved in DMSO (10 mM) and transferred into 1.4 mL flat bottom or V-shaped Matrix tubes carrying a unique 2D matrix chip by individual compound hubs. The numbers of these chips were distinctively linked to the individual compound identification numbers. The stock solutions were stored at −20° C. if not used immediately. For the test procedure the vials were defrosted and identified by a scanner whereby a working sheet is generated that guides the subsequent working steps.
(§2) Compound dilutions were made in 384 well plates. This format enabled the assay of maximally 28 individual test compounds at 12 concentrations (single points) including 2 reference compounds. The dilution protocol included the production of pre-dilution plates, master plates and assay plates: • Compound plates: 30 μL of individual compound (10 mM) DMSO solution including standard compound were transferred into columns 1 and 13 of a 384 well plate. 20 μL of DMSO were added to the rest of the wells and the compounds were serially diluted (1:3) by transferring 10 μL from a well in column 1 or 13 to the next well in column 2 or 14 respectively and successively with the help of a Minitrack robot. • Assay plates: Identical assay plates were then prepared by adding […] each of compound dilutions of the compound plates into 384-well “assay plates”. In the following the compounds were mixed with 50 μL of assays components (cells or enzyme) and tested for their inhibitory activity.
(§3) The cell line used is the luciferase expressing Ba/F3 murine hematopoietic progenitor cell line transformed with human Tel-TrkA, Tel-TrkB or Tel-TrkC cDNAs (Ba/F3 EN A/B/C). These cells maintained in RPMI/10% fetal bovine serum (RPMI/FCS) supplemented with penicillin 50 mg/mL, streptomycin 50 mg/mL and L-glutamine […]. Untransformed Ba/F3 cells were similarly maintained with the addition 5 ng/ml of murine recombinant IL3. 50 μl of a Ba/F3 or Ba/F3 EN A/B/C cell suspension were plated in Greiner 384 well microplates (white)) at a density of 2000 cells per well. 50 nl of serially diluted test compound (10-0.0001 mM in DMSO solution) is added to each well. The cells were incubated for 48 hours at 37° C., 5% CO2. 25 μl of Bright Glo® (Promega) luciferase substrate is added to each well. The emited luminiscence is quantified using the ACQUEST™ luminescence system (Molecular Devices). IC50 values were calculated by linear regression analysis of the percentage inhibition of each compound at 12 concentrations.

Tel-TrkB = molecular target: T1, Tel-TrkB (Homo sapiens, UniProt Q16620); test: Inhibition of proliferation of Ba/F3 cells expressing Tel-TrkB (BaF3/Tel-TrkB); type: cell-based; settings: Ba/F3 Tel-TrkB cells; read-out: Ba/F3 Tel-TrkB IC 50
T1 construct: dimerization domain of Tel (ETV6) transcription factor (fusion partner, human ETV6 P41212); expressed in transfected cells; host or cells: luciferase expressing Ba/F3 murine hematopoietic progenitor cells; the other entry of the earlier key: ETV6 (P41212, Transcription factor ETV6)
T1 sequence (Q16620 538-822 limits assumed): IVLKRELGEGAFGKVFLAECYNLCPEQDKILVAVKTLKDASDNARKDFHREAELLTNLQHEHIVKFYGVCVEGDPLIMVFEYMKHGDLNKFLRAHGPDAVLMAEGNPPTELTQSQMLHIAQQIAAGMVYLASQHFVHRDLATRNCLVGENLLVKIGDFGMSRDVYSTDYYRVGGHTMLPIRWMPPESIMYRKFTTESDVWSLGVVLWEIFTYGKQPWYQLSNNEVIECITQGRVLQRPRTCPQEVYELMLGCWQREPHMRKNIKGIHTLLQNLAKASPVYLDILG
Method: as §1, §2
(§4) Compounds of Formula (I) were tested for their antiproliferative effect on Ba/F3 cells expressing either Tel-TrkA, Tel-TrkB or Tel-TrkC and an additional panel of 34 selected diverse kinases activated by fusion to the dimerizing partners Bcr or Tel (Abl, A1K, BMX, EphA3, EphB2, FGFR2, FGFR3, FGFR4, FGR, FLT1, FLT3, FLT4, FMS, IGF1R, InsR, JAK1, JAK2, JAK3, KDR, Kit, Lck, Lyn, MER, MET, PDGFRb, RET, RON, Ros-1, Src, Aurora, TIE2, TYK2, Tie1, ZAP70). The antiproliferative effect of these compounds on the different cell lines and on the non transformed cells were tested at 12 different concentrations of 3-fold serially diluted compounds in 384 well plates as described above (in media lacking IL3). The IC50 values of the compounds the different cell lines were determined from dose response curves.
as §3, with “50 nl of serially diluted test compound (10-0.0001 mM in DMSO solution) is added to each well.” left out

Tel-TrkA = molecular target: T2, Tel-TrkA (Homo sapiens, UniProt P04629); test: Inhibition of proliferation of Ba/F3 cells expressing Tel-TrkA (BaF3/Tel-TrkA, luciferase/Bright Glo readout); type: cell-based; settings: read-out: Ba/F3 Tel-TrkA IC 50
T2 construct: dimerization domain of Tel (ETV6) transcription factor (fusion partner, human ETV6 P41212); expressed in transfected cells; host or cells: luciferase expressing Ba/F3 murine hematopoietic progenitor cells; the other entry of the earlier key: ETV6 (P41212, Transcription factor ETV6)
T2 sequence (P04629 510-796 limits assumed): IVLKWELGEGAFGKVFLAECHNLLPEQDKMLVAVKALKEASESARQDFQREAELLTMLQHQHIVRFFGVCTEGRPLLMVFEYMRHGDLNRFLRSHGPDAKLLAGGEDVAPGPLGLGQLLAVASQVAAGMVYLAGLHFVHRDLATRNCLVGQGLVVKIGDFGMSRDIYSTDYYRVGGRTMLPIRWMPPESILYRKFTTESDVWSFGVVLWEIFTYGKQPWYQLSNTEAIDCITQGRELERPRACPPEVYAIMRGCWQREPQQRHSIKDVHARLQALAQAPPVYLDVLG
Method: as §1, §2, §4
as §3, with “50 nl of serially diluted test compound (10-0.0001 mM in DMSO solution) is added to each well.” left out

[1] = molecular target: T3, full length rTrkA and mNGF (Rattus norvegicus, UniProt P35739); test: Inhibition of proliferation of Ba/F3 cells co-expressing full length rTrkA and mNGF (BaF3/TrkA-NFG); type: cell-based; settings: BaF3 TRKA-NGF cells, CTG readout
T3 construct: co-expressing full length rTrkA and mNGF; expressed in transfected cells; host or cells: Ba/F3 cells
T3 sequence (P35739 33-799): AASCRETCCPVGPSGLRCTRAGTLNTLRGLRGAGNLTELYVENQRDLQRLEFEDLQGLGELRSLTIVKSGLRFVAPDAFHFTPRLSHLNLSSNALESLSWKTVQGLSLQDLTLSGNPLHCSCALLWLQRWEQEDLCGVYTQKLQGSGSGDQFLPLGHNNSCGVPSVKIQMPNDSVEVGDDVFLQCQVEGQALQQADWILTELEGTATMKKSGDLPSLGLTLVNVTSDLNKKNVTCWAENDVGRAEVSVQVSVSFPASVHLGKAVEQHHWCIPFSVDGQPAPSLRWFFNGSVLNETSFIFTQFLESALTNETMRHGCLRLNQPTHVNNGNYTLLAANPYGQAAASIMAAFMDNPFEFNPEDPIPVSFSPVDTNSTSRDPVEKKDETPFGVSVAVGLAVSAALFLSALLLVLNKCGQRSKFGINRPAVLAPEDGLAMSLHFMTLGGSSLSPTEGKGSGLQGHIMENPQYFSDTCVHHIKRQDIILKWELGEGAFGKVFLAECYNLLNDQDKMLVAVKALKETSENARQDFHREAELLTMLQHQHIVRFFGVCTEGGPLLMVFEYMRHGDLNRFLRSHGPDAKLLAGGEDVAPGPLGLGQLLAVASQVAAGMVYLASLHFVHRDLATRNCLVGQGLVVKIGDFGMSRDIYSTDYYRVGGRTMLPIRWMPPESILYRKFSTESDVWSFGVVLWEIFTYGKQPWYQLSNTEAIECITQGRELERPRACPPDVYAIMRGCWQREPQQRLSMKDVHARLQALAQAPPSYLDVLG
T3 sequence (P01139 122-241 partner): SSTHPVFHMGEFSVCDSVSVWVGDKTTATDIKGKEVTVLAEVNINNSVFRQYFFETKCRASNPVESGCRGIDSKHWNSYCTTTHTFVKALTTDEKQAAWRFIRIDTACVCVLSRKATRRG

| SMILES | IC50 (parental BaF3 cells) | IC50 (Tel-TrkB) | IC50 (Tel-TrkA) | BaF3 TRKA-NGF CTG IC 50 [1] |
| --- | --- | --- | --- | --- |
| Cc1c[nH]c(C2CCN(c3cccc(-c4cnc5ccc(N6CCOCC6c6cccc(F)c6)nn45)n3)CC2)n1 (stereo not shown) [Table 7-Compound 143] | > 11000 nM | 53 nM | 34 nM | 31 nM |
| Fc1cccc(C2CCCN2c2ccc3ncc(-c4cc5ccccc5nc4F)n3n2)c1 (stereo not shown) [Table 7-Compound 153] | > 11000 nM | 244 nM | 346 nM | 698 nM |
| OCCNc1ncc(-c2cnc3ccc(N4CCCC4c4cccc(F)c4)nn23)cn1 (stereo not shown) [Table 7-Compound 171] | > 11000 nM | 129 nM | 224 nM | 238 nM |
| CC(C)(C)OC(=O)N1CCC(Oc2ncc(-c3cnc4ccc(N5CCCC5c5cccc(F)c5)nn34)cn2)CC1 (stereo not shown) [Table 7-Compound 176] | 2750 nM | 971 nM | 1120 nM | 886 nM |
| O=C1CCN(c2cccc(-c3cnc4ccc(N5CCC[C@@H]5c5cccc(F)c5)nn34)n2)CC1 [Table 7-Compound 181] | > 11000 nM | 8 nM | 7 nM | 14 nM |
| CNC(=O)OC1CCN(c2cccc(-c3cnc4ccc(N5CCC[C@@H]5c5cccc(F)c5)nn34)n2)CC1 [Table 7-Compound 185] | > 11000 nM | 70 nM | 64 nM | 119 nM |
| O=C(COCc1ccccc1)N1CCN(c2cccc(-c3cnc4ccc(N5CCC[C@@H]5c5cccc(F)c5)nn34)n2)CC1 [Table 7-Compound 191] | > 9560 nM | 12 nM | 14 nM | 16 nM |
| Fc1cccc([C@H]2CCCN2c2ccc3ncc(-c4cccc(N5CC[C@@H](NCC(F)(F)F)C5)n4)n3n2)c1 [Table 7-Compound 217] | > 11000 nM | 30 nM | 27 nM | 60 nM |
| [2H]C([2H])([2H])N(C1CCN(c2cccc(-c3cnc4ccc(N5CCC[C@@H]5c5cccc(F)c5)nn34)n2)CC1)C([2H])([2H])[2H] [Table 7-Compound 230] | 2690 nM | 9 nM | 6 nM | 29 nM |
| CCN(CC)S(=O)(=O)N1CCN(c2cccc(-c3cnc4ccc(N5CCC[C@@H]5c5cccc(F)c5)nn34)n2)CC1 [Table 7-Compound 231] | > 11000 nM | 28 nM | 23 nM | 54 nM |
| C=CC1(O)CCN(c2cccc(-c3cnc4ccc(N5CCC[C@@H]5c5cccc(F)c5)nn34)n2)CC1 [Table 7-Compound 238] | > 11000 nM | 25 nM | 17 nM | 35 nM |
| CNC1CCN(c2cc(-c3cccc(-c4cnc5ccc(N6CCCC6c6cccc(F)c6)nn45)n3)ccn2)CC1 (stereo not shown) [Table 7-Compound 249] | 6380 nM | 147 nM | 144 nM | 130 nM |
| Fc1ccc(N2CCN(c3cccc(-c4cnc5ccc(N6CCC[C@@H]6c6cccc(F)c6)nn45)n3)CC2)cc1 [Table 7-Compound 257] | > 11000 nM | 289 nM | 130 nM | 101 nM |
